# Laboratory results: article PMC10747733, “N-Substituted 2-(Benzenosulfonyl)-1-Carbotioamide Derivatives Exert Antimicrobial and Cytotoxic Effects via Aldehyde Dehydrogenase Pathway: Synthesis, In Silico and In Vitro Studies” (Pharmaceuticals, 2023)
# “Also recorded” adds a separate entry of the source.
# Key:
# [1] = test system: ALDH1A1; experiment: ALDH1A1 concentration by ELISA in Du145 cells; assay type: cell-based, human
# Procedure: The effect of compounds WZ1–WZ4 on ALDHA1 levels was investigated (Figure 10). The Du145, HepG2 and 769-P cell lines were treated with the calculated IC25 values for each compound.
# Selected cell lines, viz HepG2, Du145 and 769-P, were seeded into 6-well plates and incubated for 24 h after seeding with compounds at a concentration equal to IC25. After a further 24 h or 48 h, cells were detached with trypsin and centrifuged. The resulting cell pellet was resuspended in 0.5 mL PBS. The samples were then sonicated, and protein was determined using the Bradford method (Bio-rad; Hercules, CA, USA). Samples were equilibrated to 10 mg/mL of protein, and ALDH1A1 was determined in the samples prepared in this way. ALDH1A1 determination was performed using an ELISA (SEE824Hu; Cloud Clone Corp., Katy, TX, USA), according to the manufacturer’s protocol.
# [2] = test system: Candida spp.; experiment: Broth microdilution, summary over reference Candida spp.; assay type: cell-based; settings: for MFC: Candida, yeasts; for MFC/MIC: reference yeasts, except WZ4 towards C. parapsilosis
# Excerpt: (§1) Reference strains of microorganisms that came from American Type Culture Collection (ATCC) (Manassas, VA, USA) were used for this study. The representative Gram-positive bacteria were as follows: Staphylococcus aureus ATCC 25923, Staphylococcus aureus ATCC 29213, Staphylococcus aureus ATCC 43300, Staphylococcus epidermidis ATCC 12228, Enterococcus faecalis ATCC 29212, Micrococcus luteus ATCC 10240, Bacillus subtilis ATCC 6633 and Bacillus cereus ATCC 10876. While, those of Gram-negative bacteria were as follows: Bordetella bronchiseptica ATCC 4617, Escherichia coli ATCC 25922, Klebsiella pneumoniae ATCC 13883, Proteus mirabilis ATCC 12453, Salmonella Typhimurium ATCC 14028 and Pseudomonas aeruginosa ATCC 9027. Moreover, the following fungi belonging to yeasts were used: Candida albicans ATCC 10231, Candida albicans ATCC 2091, Candida parapsilosis ATCC 22019, Candida glabrata ATCC 90030 and Candida krusei ATCC 14243.
# (§2) The new compounds WZ1–WZ4 were assayed for both antibacterial and antifungal activity using the broth microdilution method in accordance with the European Committee on Antimicrobial Susceptibility Testing (EUCAST) and Clinical and Laboratory Standards Institute (CLSI) guidelines. The microorganisms were grown at 35 °C for 18–24 h on appropriate media (nutrient agar and Sabouraud for bacteria and fungi, respectively) (BioMaxima S.A., Lublin, Poland). Next, microbial suspensions with an optical density of 0.5 McFarland standard scale (in sterile 0.85% NaCl) were prepared. In turn, the tested compounds were initially diluted at 50 mg/mL in dimethyl sulfoxide (DMSO) and the broth microdilution method was used to assess their minimum inhibitory concentrations (MICs). For these studies, selective broth Mueller-Hinton (MH) (BioMaxima S.A., Lublin, Poland) and RPMI (Roswell Park Memorial Institute) 1640 with MOPS (3-(N-Morpholino)propanesulfonic acid) (Sigma-Aldrich Chemicals, St. Louis, MO, USA) were used for bacteria and fungi, respectively. The antimicrobial effect of compounds WZ1–WZ4 was determined in the concentration range from 2000 to 0.98 µg/mL.
# (§3) Then, the microbial suspensions were introduced into each well of the microplate and incubated for 18–24 h at 35 °C. […] The reference drugs ciprofloxacin or vancomycin (against bacteria) and nystatin (against fungi) (Sigma-Aldrich Chemicals, St. Louis, MO, USA) were also used. Next, the values of the minimum bactericidal concentration (MBC) and minimum fungicidal concentration (MFC) of WZ1–WZ4 were assessed. For this purpose, the cultures from each MIC determination well were transferred to a suitable solid medium and incubated under appropriate conditions. The lowest concentrations of compounds without microbial growth were read as MBC or MFC. The studies were performed in triplicate and representative data were gathered.
# (§4) In turn, the MBC/MIC or MFC/MIC ratios were used to assess bactericidal/fungicidal (MBC/MIC or MFC/MIC ≤ 4) and bacteriostatic/fungistatic (MBC/MIC or MFC/MIC > 4) effect of these compounds [93].
# [3] = test system: Bordetella bronchiseptica ATCC 4617; experiment: Broth microdilution antimicrobial activity; assay type: cell-based; settings: for MBC / MIC: ATCC4617
# Excerpt: as §1, §2, §3, §4
# [4] = test system: Candida krusei ATCC 14243; experiment: Broth microdilution antimicrobial activity; assay type: cell-based; settings: for MFC / MIC: Pichia kudriavzevii; for MFC: ATCC14243, read-out: MFC; for MIC: ATCC14243, read-out: MIC
# Excerpt: as §1, §2, §3, §4
# [5] = test system: Bacillus subtilis ATCC 6633; experiment: Broth microdilution antimicrobial activity; assay type: cell-based; settings: for MBC / MIC: ATCC6633
# Excerpt: as §1, §2, §3, §4
# [6] = test system: Staphylococcus epidermidis ATCC 12228; experiment: Broth microdilution antimicrobial activity; assay type: cell-based; settings: for MBC / MIC: ATCC12228
# Excerpt: as §1, §2, §3, §4
# [7] = test system: Staphylococcus aureus ATCC 29213; experiment: Broth microdilution antimicrobial activity; assay type: cell-based; settings: Staphylococcus aureus ATCC 29213; for MBC / MIC: ATCC29213
# Excerpt: as §1, §2, §3, §4
# [8] = test system: Escherichia coli ATCC 25922; experiment: Broth microdilution antimicrobial activity; assay type: cell-based; settings: for MBC / MIC: ATCC25922
# Excerpt: as §1, §2, §3, §4
# [9] = test system: Klebsiella pneumoniae ATCC 13883; experiment: Broth microdilution antimicrobial activity; assay type: cell-based; settings: for MBC / MIC: ATCC13883
# Excerpt: as §1, §2, §3, §4
# [10] = test system: Staphylococcus aureus ATCC 43300; experiment: Broth microdilution antimicrobial activity; assay type: cell-based; settings: Staphylococcus aureus ATCC 43300; for MBC / MIC: ATCC43300
# Excerpt: as §1, §2, §3, §4
# [11] = test system: Staphylococcus aureus ATCC 25923; experiment: Broth microdilution antimicrobial activity; assay type: cell-based; settings: for MBC / MIC: ATCC25923
# Excerpt: as §1, §2, §3, §4
# [12] = test system: Enterococcus faecalis ATCC 29212; experiment: Broth microdilution antimicrobial activity; assay type: cell-based; settings: Enterococcus faecalis ATCC 29212; for MBC / MIC: ATCC29212; for MBC: read-out: MBC; for MIC: read-out: MIC
# Excerpt: as §1, §2, §3, §4
# [13] = test system: Pseudomonas aeruginosa ATCC 9027; experiment: Broth microdilution antimicrobial activity; assay type: cell-based; settings: for MBC / MIC: ATCC9027
# Excerpt: as §1, §2, §3, §4
# [14] = test system: Candida albicans ATCC 2091; experiment: Broth microdilution antimicrobial activity; assay type: cell-based; settings: for MFC: ATCC2091, read-out: MFC; for MIC: ATCC2091, read-out: MIC
# Excerpt: as §1, §2, §3, §4
# [15] = test system: Candida parapsilosis ATCC 22019; experiment: Broth microdilution antimicrobial activity; assay type: cell-based; settings: for MFC / MIC: Lodderomyces parapsilosis; for MFC: ATCC22019, read-out: MFC; for MIC: ATCC22019, read-out: MIC
# Excerpt: as §1, §2, §3, §4
structure (smiles),measurement,setting,value
"CCCCCCNC(=S)NNS(=O)(=O)c1ccccc1 [WZ3, 2-(Benzenesulfonyl)-N-Hexylhydrazine-1-Carbothioamide]",ALDH1A1 concentration compared to control,"[1]; compound at IC25, 48 h",decrease; also recorded: significantly reduced
same,MIC,[2]; C. albicans and C. krusei,250 to 500 µg/mL
same,MFC,[2],500 to 2000 µg/mL
same,MIC,[2]; reference Candida spp.,125 to 2000 µg/mL
same,MFC/MIC,[2],1–4
same,MBC/MIC,[3],> 4
same,MBC,[3],> 2000 µg/mL
same,MIC,[3],500 µg/mL
same,MFC/MIC,[4],2
same,MFC,[4],1000 µg/mL
same,MIC,[4],500 µg/mL
same,MBC/MIC,[5],4
same,MBC,[5],500 µg/mL
same,MIC,[5],125 µg/mL
same,MBC/MIC,[6],1
same,MBC,[6],250 µg/mL
same,MIC,[6],250 µg/mL
same,MBC,[7],500 µg/mL
same,MIC,[7],500 µg/mL
same,MBC/MIC,[7],1
same,MBC/MIC,[8],> 4
same,MBC,[8],> 2000 µg/mL
same,MIC,[8],500 µg/mL
same,MBC/MIC,[9],> 2
same,MBC,[9],> 2000 µg/mL
same,MIC,[9],1000 µg/mL
same,MBC,[10],500 µg/mL
same,MIC,[10],250 µg/mL
same,MBC/MIC,[10],2
same,MBC/MIC,[11],4
same,MBC,[11],1000 µg/mL
same,MIC,[11],250 µg/mL
same,MBC,[12],> 2000 µg/mL
same,MIC,[12],500 µg/mL
same,MBC/MIC,[12],> 4
same,MBC/MIC,[13],1
same,MBC,[13],1000 µg/mL
same,MIC,[13],1000 µg/mL
same,MFC/MIC,[14],2
same,MFC,[14],1000 µg/mL
same,MIC,[14],500 µg/mL
same,MFC/MIC,[15],1
same,MFC,[15],2000 µg/mL
same,MIC,[15],2000 µg/mL
"CNC(=S)NNS(=O)(=O)c1ccccc1 [WZ4, 2-(Benzenesulfonyl)-N-Methylhydrazine-1-Carbothioamide]",ALDH1A1 concentration compared to control,"[1]; compound at IC25, 24 h",decrease
same,ALDH1A1 concentration compared to control,"[1]; compound at IC25, 48 h",decrease; also recorded: significantly reduced
same,MIC,[2]; C. albicans and C. krusei,250 to 500 µg/mL
same,MFC,[2],500 to 2000 µg/mL
same,MIC,[2]; reference Candida spp.,125 to 2000 µg/mL
same,MFC/MIC,[2],1–4
same,MBC/MIC,[3],> 1
same,MBC,[3],> 2000 µg/mL
same,MIC,[3],> 2000 µg/mL
same,MFC/MIC,[4],4
same,MFC,[4],2000 µg/mL
same,MIC,[4],500 µg/mL
same,MBC/MIC,[5],16
same,MBC,[5],2000 µg/mL
same,MIC,[5],125 µg/mL
same,MBC/MIC,[6],4
same,MBC,[6],500 µg/mL
same,MIC,[6],125 µg/mL
same,MBC,[7],> 2000 µg/mL
same,MIC,[7],1000 µg/mL
same,MBC/MIC,[7],> 2
same,MBC/MIC,[8],> 1
same,MBC,[8],> 2000 µg/mL
same,MIC,[8],> 2000 µg/mL
same,MBC/MIC,[9],> 1
same,MBC,[9],> 2000 µg/mL
same,MIC,[9],> 2000 µg/mL
same,MBC,[10],2000 µg/mL
same,MIC,[10],500 µg/mL
same,MBC/MIC,[10],4
same,MBC/MIC,[11],> 4
same,MBC,[11],> 2000 µg/mL
same,MIC,[11],500 µg/mL
same,MBC,[12],> 2000 µg/mL
same,MIC,[12],1000 µg/mL
same,MBC/MIC,[12],> 2
same,MBC/MIC,[13],> 1
same,MBC,[13],> 2000 µg/mL
same,MIC,[13],> 2000 µg/mL
same,MFC/MIC,[14],4
same,MFC,[14],1000 µg/mL
same,MIC,[14],250 µg/mL
same,MFC/MIC,[15],8
same,MFC,[15],1000 µg/mL
same,MIC,[15],125 µg/mL
